Data published in publication PMC6154603, “Study on the Rationality for Antiviral Activity of Flos Lonicerae Japonicae-Fructus Forsythiae Herb Couple Preparations Improved by Chito-Oligosaccharide via Integral Pharmacokinetics” (Molecules : A Journal of Synthetic Chemistry and Natural …, 2017).

Experiments:
[1] = test system: influenza virus strain, A/PR8/34 (H1N1); assay type: cell-based; details: compared with PBS group; ribavirin 20 mg/kg orally as positive control; Figure S1
influenza A virus (H1N1) = assay: microbe, parasite or virus in culture; assay type: cell-based; details: for IC50: Influenza A virus, H1N1, MDCK, tested 0.0625-1.0000 mM, unit inferred, read-out: IC50 (anti-viral activity)
[2] = Pharmacokinetics of caffeic acid derivatives after oral administration of the FLJ-FF herb couple; design: species or system rats; details: rat, in vivo
Description: The pharmacokinetics of caffeic acid derivatives in the FLJ-FF herb couple was studied in our previous study. Integral concentrations at each time point for the eight components were calculated based on the AUC-weighting method. The weighting coefficient for each component was calculated using Equations (4) and (5). […] AUC was determined using GraphPad Prism for Windows, version 5 (Graph Pad Software Inc., San Diego, CA, USA). […] Subsequently, plasma was prepared by centrifugation at 1816× g for 7 min and immediately analyzed or stored at −70 °C for further analysis after being mixed with 10 μL of 5% formic acid. The treatment and UPLC-ESI-MS/MS analysis for samples have been studied previously.

Caco-2 cell = assay: In vitro Caco-2 cell transport model; assay type: in vitro ADME, human; details: Shuang-Huang-Lian, with 0.1% (w/v) of COS vs control
Excerpt: The protocol of Caco-2 cell study was shown previously.

[3] = In vivo pharmacokinetic study of FLJ-FF herb couple preparations with or without COS; design: species or system rats; details: rat, po
Excerpt: The rats were administrated product A and A4 at the dosages of at the dosage of 32 g raw medicine per kilogram, product B and B4 at the dosage of 64 g raw medicine per kilogram, product C and C4 at the dosage of 48 g raw medicine per kilogram, and product D and D4 at the dosage of 160 g raw medicine per kilogram, respectively.

Compound	inhibition rate on influenza virus [1]	IC50 (influenza A virus (H1N1)) [µM]	AUC(0-inf) [2] [ng·h/mL]	AUC(0-t) [2] [ng·h/mL]	Cmax [2] [ng/mL]	MRT last [2] [h]	Tmax [2] [h]	half-life [2] [h]	highest Papp-value increase (Caco-2 cell) [fold]	AUC ([3]; AUC (Control)) [ng·h/mL]	antiviral activity, folds lower than that of forsythoside A (influenza A virus (H1N1)) [folds]	AUC ([3]; 25 mg/kg, AUC (Absorption Enhancer)) [ng·h/mL]
NC(=O)c1ncn([C@@H]2O[C@H](CO)[C@@H](O)[C@H]2O)n1 [ribavirin]	remarkable increase	–	–	–	–	–	–	–	–	–	–	–
O=C(C=Cc1ccc(O)c(O)c1)OC1C(O)CC(O)(C(=O)O)CC1O (stereo not drawn) [Cryptochlorogenic acid, cryptochlorogenic acid]	–	735	726	713	950 ± 201	4.84	0.167	4.64 ± 1.03	3.13	–	–	–
O=C(/C=C/c1ccc(O)c(O)c1)O[C@@H]1C[C@](O)(C(=O)O)C[C@@H](OC(=O)/C=C/c2ccc(O)c(O)c2)[C@H]1O [3,5-dicaffeoylquinic acid]	–	393	54.2	53.1	70.5 ± 28.1	6.39	0.1667 ± 0	5.95 ± 0.559	8.66	57.7	–	–
O=C(C=Cc1ccc(O)c(O)c1)OC1CC(O)(C(=O)O)CC(O)C1OC(=O)C=Cc1ccc(O)c(O)c1 (stereo not drawn) [3,4-dicaffeoylquinic acid]	–	401	213	141	66.7 ± 15.4	7.6	0.167	9.18 ± 0.649	5.86	–	–	–
O=C(/C=C/c1ccc(O)c(O)c1)O[C@@H]1C[C@](O)(C(=O)O)C[C@@H](O)[C@H]1O [Chlorogenic acid]	–	754	3160	3220	2500 ± 438	4.74	–	3.9 ± 0.699	–	638	2.47	968
O=C(C=Cc1ccc(O)c(O)c1)OC1CC(O)(C(=O)O)CC(O)C1O (stereo not drawn) [Neochlorogenic acid]	–	722	715	579	575 ± 170	5.3	0.167	3.49 ± 0.423	–	–	–	–
